For 12 compounds, Ki results are on record in patent US9328138B2 (priority 2011, dated 2016).

The target in assay [1] is HCV NS3 protease genotype 3a (3A-1) (Hepatitis C virus genotype 3a, UniProt Q81258). Description: HCV NS3 protease time-resolved fluorescence (TRF) assay, genotype 3a. To be noted: Ki 3a. Type of assay: biochemical. In a few lines:
(§1)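 Assay buffer: 50 mM HEPES pH 7.5, 150 mM NaCl, 0.1% PEG 8000, 0.15% Triton X-100. Ten-minute enzyme–inhibitor preincubation; substrate at 25 nM final; 6 h reaction, room temperature; signal/background set at 5-20 by enzyme amount.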

Assay [2] addresses T1, HCV genotype 1b (BK) NS3 modified enzyme with a R155K mutation (Hepatitis C virus genotype 1b, UniProt P26663, R1181K).
T1 construct: HCV genotype 1b (BK) NS3 modified enzyme
Description: HCV NS3 protease time-resolved fluorescence (TRF) assay, genotype 1b R155K. The format is biochemical. To be noted: Ki 1b R155K. The method in brief: as §1

The mark [3] stands for this setting: genotype 1b (BK) NS3 R155K, single value.

Molecules are shown by their SMILES.

With `C=C[C@@H]1C[C@]1(NC(=O)[C@@H]1C[C@@H]2CN1C(=O)[C@H](C(C)(C)C)NC(=O)O[C@@H]1C[C@H]1CCCCCc1c(nc3ccccc3c1OCCCN1CC(OC)C1)O2)C(=O)NS(=O)(=O)C1(C)CC1` [Example 157, (1aR,5S,8S,10R,22aR)-5-tert-butyl-N-[(1R,2S)-2-ethenyl-1-{[(1-methylcyclopropyl)sulfonyl]carbamoyl}cyclopropyl]-17-[3-(3-methoxyazetidin-1-yl)propoxy]-3,6-dioxo-1,1a,3,4,5,6,9,10, 18,19,20,21,22,22a-tetradecahydro-8H-7,10-methanocyclopropa[18,19] [1,10,3,6]dioxadiazacyclononadecino [11,12-b]quinoline-8-carboxamide], the values for the Ki in assay [1] and in assay [2] (setting [3]) were 0.76 nM and 0.049 nM, respectively.

Turning to `C=C[C@@H]1C[C@]1(NC(=O)[C@@H]1C[C@@H]2CN1C(=O)[C@H](C(C)(C)C)NC(=O)O[C@@H]1CCC[C@H]1CCCCCc1c(nc3ccccc3c1OCCN1CCOCC1)O2)C(=O)NS(=O)(=O)C1CC1` [Example 104, (3aR,7S,10S,12R,24aR)-7-tert-butyl-N-{(1R,2S)-1-[(cyclopropylsulfonyl)carbamoyl]-2-ethenylcyclopropyl}-19-[2-(morpholin-4-yl)ethoxy]-5,8-dioxo-1,2,3,3a,5,6,7,8,11,12,20, 21,22,23,24,24a-hexadecahydro-10H-9,12-methanocyclopenta[18,19] [1,10,3,6]dioxadiaza-cyclononadecino[11,12-b] quinoline-10-carboxamide], the Ki in assay [1] amounted to 26 nM; in assay [2] (setting [3]) it was 1.3 nM.

Turning to `C=C[C@@H]1C[C@]1(NC(=O)[C@@H]1C[C@@H]2CN1C(=O)[C@H](C(C)(C)C)NC(=O)O[C@@H]1C[C@H]1CCCCCc1c(nc3cc(C(C)C)ccc3c1OCCCN1CCS(=O)(=O)CC1)O2)C(=O)NS(=O)(=O)C1(C)CC1` [Example 162, (1aR,5S,8S,10R,22aR)-5-tert-butyl-17-[3-(1,1-dioxidothiomorpholin-4-yl)propoxy]-N-[(1R,2S)-2-ethenyl-1-{[(1-methylcyclopropyl)sulfonyl]carbamoyl}cyclopropyl]-3,6-dioxo-14-(propan-2-yl)-1,1a,3,4,5,6,9,10,18, 19,20,21,22,22a-tetradecahydro-8H-7,10-methanocyclopropa[18,19] [1,10,3,6]dioxadiazacyclononadecino [11,12-b]quinoline-8-carboxamide], the Ki in assay [1] is 1.7 nM; in assay [2] (setting [3]) it was 0.18 nM.

In the case of `CC1(S(=O)(=O)NC(=O)[C@@]23C[C@H]2/C=C\CCCCC[C@@H]2NC(=O)O[C@@H]4C[C@H]4CCC/C=C/c4c(nc5ccccc5c4OCCCN4CCCC4)O[C@@H]4C[C@@H](C(=O)N3)N(C4)C2=O)CC1` [Example 303, (1aR,5S,11Z,12aS,13aR,16S,19R,27E, 31aR)-N-[(1-methylcyclopropyl)sulfonyl]-3,15,33-trioxo-26-[3-(pyrrolidin-1-yl)propoxy]-1,1a,3,4,5,6,7,8,9,10,12a,13,15,16,18, 19,29,30,31,31a-icosahydro-5,17:16,19-dimethanodicyclopropa[12,13:28,29] [1,20,3,14,17] dioxatriazacyclononacosino[21,22-b]quinoline-13a(14H)-carboxamide], the results for the Ki in assay [1] and in assay [2] (setting [3]) were 3.6 nM and 0.28 nM, respectively.

Take `C=C[C@@H]1C[C@]1(NC(=O)[C@@H]1C[C@@H]2CN1C(=O)[C@H](C(C)(C)C)NC(=O)O[C@@H]1CCC[C@H]1CCCCCc1c(nc3ccccc3c1OCCN1CCCC1)O2)C(=O)NS(=O)(=O)C1(COC)CC1` [Example 102, (3aR,7S,10S,12R,24aR)-7-tert-butyl-N-[(1R,2S)-2-ethenyl-1-({[1-(methoxymethyl)cyclopropyl]sulfonyl}carbamoyl)cyclopropyl]-5,8-dioxo-19-[2-(pyrrolidin-1-yl)ethoxy]-1,2,3,3a, 5,6,7,8,11,12,20,21,22,23,24,24a-hexadecahydro-10H-9,12-methanocyclopenta[18,19] [1,10,3,6]dioxadiazacyclo-nonadecino[11,12-b]quinoline-10-carboxamide]: the Ki in assay [1] amounted to 3.2 nM; in assay [2] (setting [3]), 0.21 nM.

On to `C=C[C@@H]1C[C@]1(NC(=O)[C@@H]1C[C@@H]2CN1C(=O)[C@H](C1CCCCC1)NC(=O)O[C@@H]1C[C@H]1CCCCCc1c(nc3c(OC)cccc3c1OCCN1CCCCC1)O2)C(=O)NS(=O)(=O)C1(C)CC1` [Example 216, (1aR,5S,8S,10R,22aR)-5-cyclohexyl-N-[(1R,2S)-2-ethenyl-1-{[(1-methylcyclopropyl)sulfonyl]carbamoyl}cyclopropyl]-13-methoxy-3,6-dioxo-17-[2-(piperidin-1-yl)ethoxy]-1,1a,3,4,5,6,9,10,18,19,20,21,22,22a-tetradecahydro-8H-7,10-methanocyclopropa[18,19][1,10,3,6] dioxadiazacyclononadecino[11,12-b]quinoline-8-carboxamide], for which the figures for the Ki in assay [1] and in assay [2] (setting [3]) were 6.4 nM and 0.24 nM, respectively.

Regarding `C=C[C@@H]1C[C@]1(NC(=O)[C@@H]1C[C@@H]2CN1C(=O)[C@H](C(C)(C)C)NC(=O)O[C@@H]1C[C@H]1CCCCCc1c(nc3ccccc3c1OCC1CN(C)C1)O2)C(=O)NS(=O)(=O)C1(C)CC1` [Example 224, (1aR,5S,8S,10R,22aR)-5-tert-butyl-N-[(1R,2S)-2-ethenyl-1-{[(1-methylcyclopropyl)sulfonyl]carbamoyl}cyclopropyl]-17-[(1-methylazetidin-3-yl)methoxy]-3,6-dioxo-1,1a,3,4,5,6,9,10,18,19,20,21,22,22a-tetradecahydro-8H-7,10-methanocyclopropa[18,19][1,10,3,6]dioxadiazacyclononadecino[11,12-b]quinoline-8-carboxamide], the Ki amounted to 0.67 nM in assay [1] and 0.061 nM in assay [2] (setting [3]).

For `C=C[C@@H]1C[C@]1(NC(=O)[C@@H]1C[C@@H]2CN1C(=O)[C@H](C1CCCC1)NC(=O)O[C@@H]1CCC[C@H]1CC/C=C/Cc1c(nc3ccccc3c1OP(=O)(OCC)OCC)O2)C(=O)NS(=O)(=O)C1CC1` [Example 38, (3aR,7S,10S,12R,21E,24aS)-7-cyclopentyl-10-({(1R,2S)-1-[(cyclopropylsulfonyl)carbamoyl]-2-ethenylcyclopropyl}carbamoyl)-5,8-dioxo-1,2,3,3a,5,6,7,8,11,12,20,23,24,24a-tetradecahydro-10H-9,12-methanocyclopenta[18,19][1,10,3,6]dioxadiazacyclononadecino[11,12-b]quinolin-19-yl diethyl phosphate], the inhibition constant Ki in assay [1] was 94 nM; in assay [2] (setting [3]), 1.2 nM.

Consider `COc1c2c(nc3ccccc13)O[C@@H]1C[C@H]3C(=O)N[C@]4(C(=O)NS(=O)(=O)C5(C)CC5)C[C@H]4/C=C\CCCCC[C@H](NC(=O)O[C@@H]4C[C@H]4CCCCC2)C(=O)N3C1` [Example 305, (1aR,5S,11Z,12aS,13aR,16S,19R,31aR)-26-methoxy-N-[(1-methylcyclopropyl)sulfonyl]-3,15,33-trioxo-1,1a,3,4,5,6,7,8,9,10,12a,13,15,16,18,19,27,28,29,30,31,31a-docosahydro-5,17:16,19-dimethanodicyclopropa[12,13:28,29][1,20,3,14,17]dioxatriazacyclononacosino[21,22-b]quinoline-13a(14H)-carboxamide], for which the Ki in assay [1] worked out at 2 nM; in assay [2] (setting [3]), 0.066 nM.

As for `C=C[C@@H]1C[C@]1(NC(=O)[C@@H]1C[C@@H]2CN1C(=O)[C@H](C(C)(C)C)NC(=O)O[C@@H]1C[C@H]1CCCCCc1c(nc3ccccc3c1OCCNC(C)(C)C)O2)C(=O)NS(=O)(=O)C1(C)CC1` [Example 177, (1aR,5S,8S,10R,22aR)-5-tert-butyl-17-[2-(tert-butylamino)ethoxy]-N-[(1R,2S)-2-ethenyl-1-{[(1-methylcyclopropyl)sulfonyl]carbamoyl}cyclopropyl]-3,6-dioxo-1,1a,3,4,5,6,9,10, 18,19,20,21,22,22a-tetradeca hydro-8H-7,10-methanocyclopropa[18,19][1,10,3,6] dioxadiazacyclononadecino[11,12-b] quinoline-8-carboxamide], the Ki in assay [1] was determined as 1.1 nM; in assay [2] (setting [3]) it was 0.14 nM.

Turning to `C=C[C@@H]1C[C@]1(NC(=O)[C@@H]1C[C@@H]2CN1C(=O)[C@H](C1CCCCC1)NC(=O)O[C@@H]1C[C@H]1CCCCCc1c(nc3ccccc3c1OC1CC3CCC(C1)N3C(=O)OC(C)(C)C)O2)C(=O)NS(=O)(=O)C1(C)CC1` (stereo partly drawn) [Example 282, tert-butyl 3-{[(1aR,5S,8S,10R,22aR)-5-cyclohexyl-8-{[(1R,2S)-2-ethenyl-1-{[(1-methylcyclopropyl)sulfonyl]carbamoyl}cyclopropyl]carbamoyl}-3,6-dioxo-1,1a,3,4,5,6,9,10,18,19,20,21,22,22a-tetradecahydro-8H-7,10-methanocyclopropa[18,19][1,10,3,6]dioxadiazacyclononadecino[11,12-b]quinolin-17-yl]oxy}-8-azabicyclo[3.2.1]octane-8-carboxylate], the results for the Ki in assay [1], in assay [2] (first of two values printed in the cell (not explained)) and in assay [2] (second of two values printed in the cell (not explained)) were 140 nM, 0.14 nM and 5.3 nM, respectively.

Regarding `C=C[C@@H]1C[C@]1(NC(=O)[C@@H]1C[C@@H]2CN1C(=O)[C@H](C(C)(C)C)NC(=O)O[C@@H]1C[C@H]1CCCCCc1c(nc3cc(C(C)C)ccc3c1OCCCN1C[C@@H]3C[C@H]1CO3)O2)C(=O)NS(=O)(=O)C1(C)CC1` [Example 164, (1aR,5S,8S,10R,22aR)-5-tert-butyl-N-[(1R,2S)-2-ethenyl-1-{[(1-methylcyclopropyl)sulfonyl]carbamoyl}cyclopropyl]-17-{3-[(1S,4S)-2-oxa-5-azabicyclo[2.2.1]hept-5-yl]propoxy}-3,6-dioxo-14-(propan-2-yl)-1,1a,3,4,5,6,9,10,18,19,20, 21,22,22a-tetradecahydro-8H-7,10-methanocyclopropa[18,19][1,10,3,6] dioxadiazacyclononadecino [11,12-b]quinoline-8-carboxamide], the Ki in assay [1] turned out to be 1.2 nM; in assay [2] (setting [3]), 0.096 nM.

For orientation: Ki means the equilibrium dissociation constant of an inhibitor or competing ligand from its target. Low readings indicate higher affinity, high ones lower affinity.
